This is an account of results in patent US9303019B2, “Amino-pyrroline derivatives, and use thereof in the prevention and/or treatment of metabolic syndrome” (UNIVERSITE DE STRASBOURG, priority 2012, dated 2016).

For one experiment, the system named is 3T3-L1 adipocytes. The experiment in a line: Secretion of adiponectin by differentiated 3T3-L1 adipocytes (ELISA). The format is cell-based, murine. The note with it: 3 μmol/l, 6 h; control 212.6±19.1. As to the method: 3T3-L1 murine preadipocytes were cultured to confluence at 37° C. in DMEM medium containing 4.5 g/litre of D-glucose, 10% FCS and antibiotics. At confluence, differentiation of the 3T3-L1 adipocytes was initiated through the addition over 48 h of a mixture containing 100 μM methyl-isobutylxanthine, 100 nm dexamethasone and 175 nM insulin. The cells were then passaged every 2-3 days in DMEM, 10% FCS and 175 nM insulin. More than 95% of cells had the phenotype of mature adipocytes 10 days after confluence was reached.
To determine the secretion of adiponectin by mature adipocytes, differentiated 3T3-L1 adipocytes (10 days after confluence) were placed in culture in 12-well plates and washed three times with DMEM, then cultured for 6 h in DMEM alone, in the absence or presence of 3 μM of compound 1. In some wells the antagonist selective for the imidazoline receptors I1, efaroxan, was added (100 μM) 30 min before exposure to compound 1.
The culture medium was then recovered, centrifuged for 3 min at 10 000 g to remove cell contaminants, and the supernatant was stored at −80° C. until use. After two washings in cold PBS, the adipocytes were collected in PBS, homogenized and stored at −80° C. An aliquot of adipocyte homogenate was stored for protein determination. The adiponectin was measured using an ELISA kit following the manufacturer's recommendations. The adiponectin concentration was normalized with the cell protein content.
On the technique in general: ELISA stands for enzyme-linked immunosorbent assay.

The subject of experiment [1] is different receptors, transporters and enzymes. The experiment in a line: Specific binding assay on different receptors, transporters and enzymes. The note with it: assayed at 10^−7 M and 10^−5 M. As to the method:
Compound 1 was assayed at two concentrations 10^−7 (1.0E-07) M and […] (1.0E-05) on different receptors, transporters and enzymes using the techniques described in the literature and adapted for the laboratory.

For the compound `Cc1c(Cl)cccc1NC1=NCC(C)C1.Cl` (stereo not drawn) [Compound 1, (3-Chloro-2-methyl-phenyl)-(4-methyl-4,5-dihydro-3H-pyrrol-2-yl)-amine hydrochloride], the secretion of adiponectin in the experiment on 3T3-L1 adipocytes is recorded as 378±38 ng/ml/mg of proteins. In addition, the “affinity for more than 50 receptors, transporters and enzymes” value was “does not exhibit any affinity similar to the affinity for the imidazoline receptor I1” in experiment [1] (hydrochloride); “does not bind to any of the assayed receptors, transporters and enzymes with affinity similar” in experiment [1] (listed as compound 1, hydrochloride).
